“And” between values parts separate entries of the source, which are not always exact repeats. Equal values may be shown once.
Key:
OVA = system: OVA; design: species or system C57BL/6 mice; conditions: mouse, in vivo
[1] = system: bone marrow dendritic cells; assay type: cell-based, C57BL/6 mice
[2] = system: IL-12 secretion from dendritic cells; assay type: cell-based, C57BL/6 mice

Substance	anti OVA antibody titres (OVA)	MTT (Absorbance) [1]	IL-12 [2]
OVA, no adjuvant: 15 μg ovalbumin (OVA) with no adjuvant	<42	–	–
lipopolysaccharide [LPS]	–	0.564 Absorbance and 0.562 Absorbance	187.9 ng/mL and 182.7 ng/mL

Source: patent publication US20080248094A1 (NATIONAL RESEARCH COUNCIL OF CANADA, priority 2001, published 2008)
